Here are results for five substances from patent publication US9067974B2, “Polymyxin derivatives and uses thereof” (priority 2006, dated 2015).

The test system of assay [1] is Acinetobacter baumannii ATCC 19606. Description: Well diffusion growth inhibition on LB agar plates (direct antibacterial activity). Type of assay: cell-based. The conditions noted are these: A. baumannii ATCC 19606. On the procedure: (§1) From an overnight-grown culture of IH3080 on LB agar, a suspension of approx. 10^8 cells/ml was prepared in 0.9% NaCl. Aliquots of this suspension were then pipetted on the agar plates and the plates were gently shaken to spread the suspension evenly on the entire surface of the plate. Thereafter, the unabsorbed part of the suspension was removed by using a Pasteur pipette. After the surface had dried, small wells (diameter, 2 mm) were drilled on the plates (five wells per plate) by using a sterile sharp-edged narrow metal tube, single-use pipette tip, and vacuum suction. Samples (4 μl and 10 μl) of the peptide solution in 0.9% NaCl (at concentrations of 1 μg/ml and 0.1 μg/ml) were then pipetted to the wells and the sample fluids were allowed to absorb. Controls included 0.9% NaCl solution without the compound to be tested. The plates were then incubated for 18 h at 37° C. whereafter the diameters of growth inhibition zones around each well were measured; the diameter of the well itself was not reduced. Finally, the diameters were converted to surface areas of growth inhibition (in square mm).
(§2) Direct antibacterial activity of twelve NAB compounds against Acinetobacter baumannii ATCC 19606 and Pseudomonas aeruginosa ATCC 27853 was tested by using the susceptibility determination method described in Example 2. Five compounds (NAB7062, NAB734, NAB737, NAB739, and NAB740) had notable activity against A. baumannii. […] The antibacterial activity of NAB739 and NAB740 were as strong as or even stronger than that of polymyxin B.

The subject of assay [2] is Pseudomonas aeruginosa ATCC 27853. Described as above. Type of assay: cell-based. The conditions noted are these: Ps. aeruginosa ATCC 27853. On the procedure: as §1, §2
A further assay has as its system E. coli IH3080. Description: Sensitization to rifampin: well diffusion growth inhibition on LB plates containing rifampin. Type of assay: cell-based, Escherichia coli. Conditions: 4 μg of compound. On the procedure: as §1, with “Samples (4 μl and 10 μl) of the peptide solution in 0.9% NaCl (at concentrations of 1 μg/ml and 0.1 μg/ml) were then pipetted to the wells and the sample fluids were allowed to absorb.” left out

The next assay concerns E. coli IH3080 (K1:O18). Description: Well diffusion growth inhibition on LB agar plates (direct antibacterial activity). Type of assay: cell-based, Escherichia coli. As to the method:
Peptides synthesized in Example 1, all carrying at least two (2) but not more than three (3) positive charges, were studied for their ability to inhibit the growth of E. coli. This was tested employing LB agar (LB Agar Lennox, Difco, BD, Sparks, Md., U.S.A) plates. The indicator organism E. coli IH3080 (K1:O18) was an encapsulated strain originally isolated from a neonate suffering from meningitis (Vaara et al. 1984) and obtained from National Public Health Institute, Helsinki, Finland.
as §1, with “Samples (4 μl and 10 μl) of the peptide solution in 0.9% NaCl (at concentrations of 1 μg/ml and 0.1 μg/ml) were then pipetted to the wells and the sample fluids were allowed to absorb.” left out

The test system of a further assay is A. baumannii ATCC 19606. Description: Sensitization to rifampin: well diffusion growth inhibition on LB plates containing rifampin. Type of assay: cell-based, Acinetobacter baumannii. The conditions noted are these: 4 μg of compound.
Assay [3] deals with Ps. aeruginosa ATCC 27853. The assay is described as above. Type of assay: cell-based, Pseudomonas aeruginosa. The conditions noted are these: 4 μg of compound.

Take “OA-Thr-DAla-cy[Dab-Dab-DPhe-Thr-Dab-Dab-Thr-] [NAB 738]”: the “Antibacterial activity (growth inhibition area around a well)” value in assay [1] (4 μg per well) is reported as 0 square millimeters; in assay [1] (10 μg per well), 0 square millimeters; in assay [2] (4 μg per well) it was 0 square millimeters; in assay [2] (10 μg per well) it was 0 square millimeters; with E. coli IH3080 (K1:O18) (4 μg of compound per well), 0 square millimeters; in the assay with E. coli IH3080 (K1:O18) (10 μg of compound per well) it was 64 square millimeters. Also, the “Antibacterial activity in the presence of rifampin (growth inhibition area around a well)” value was found to be 0 square millimeters with E. coli IH3080 (rifampin 0 μg/ml); 133 square millimeters in the assay on E. coli IH3080 (rifampin 0.1 μg/ml); 177 square millimeters with E. coli IH3080 (rifampin 1.0 μg/ml); 0 square millimeters in the assay on A. baumannii ATCC 19606 (rifampin 0 μg/ml); 95 square millimeters in the assay on A. baumannii ATCC 19606 (rifampin 0.1 μg/ml); 154 square millimeters in the assay with A. baumannii ATCC 19606 (rifampin 0.3 μg/ml). Moreover, the “Antibacterial activity in the presence of rifampin (growth inhibition area around a well)” value in assay [3] (rifampin 0 μg/ml) is 0 square millimeters; in assay [3] (rifampin 0.1 μg/ml) it was 13 square millimeters; in assay [3] (rifampin 0.3 μg/ml) it was 13 square millimeters.
With “OA-Thr-DSer-cy[Dab-Dab-DPhe-Leu-Dab-Dab-Thr-] [NAB 739]”, the “Antibacterial activity (growth inhibition area around a well)” value in assay [1] (4 μg per well) came out at 113 square millimeters; in assay [1] (10 μg per well), 177 square millimeters; in assay [2] (4 μg per well), 38 square millimeters; in assay [2] (10 μg per well), 79 square millimeters; in the assay on E. coli IH3080 (K1:O18) (4 μg of compound per well), 133 square millimeters; with E. coli IH3080 (K1:O18) (10 μg of compound per well), 177 square millimeters. Also, the “Antibacterial activity in the presence of rifampin (growth inhibition area around a well)” value with E. coli IH3080 (rifampin 0 μg/ml) is 133 square millimeters; with E. coli IH3080 (rifampin 0.1 μg/ml), 177 square millimeters; with E. coli IH3080 (rifampin 1.0 μg/ml), 201 square millimeters; in the assay with A. baumannii ATCC 19606 (rifampin 0 μg/ml), 113 square millimeters; in the assay on A. baumannii ATCC 19606 (rifampin 0.1 μg/ml), 177 square millimeters; in the assay on A. baumannii ATCC 19606 (rifampin 0.3 μg/ml), 314 square millimeters. Besides, the “Antibacterial activity in the presence of rifampin (growth inhibition area around a well)” value in assay [3] (rifampin 0 μg/ml) stood at 38 square millimeters; in assay [3] (rifampin 0.1 μg/ml), 64 square millimeters; in assay [3] (rifampin 0.3 μg/ml), 64 square millimeters.
Take “OA-Thr-DThr-cy[Dab-Dab-DPhe-Thr-Dab-Dab-Thr-] [NAB 737]”: the “Antibacterial activity (growth inhibition area around a well)” value in assay [1] (4 μg per well) worked out at 38 square millimeters; in assay [1] (10 μg per well), 79 square millimeters; in assay [2] (4 μg per well), 0 square millimeters; in assay [2] (10 μg per well), 28 square millimeters; in the assay on E. coli IH3080 (K1:O18) (4 μg of compound per well) it was 133 square millimeters; in the assay with E. coli IH3080 (K1:O18) (10 μg of compound per well), 201 square millimeters. The “Antibacterial activity in the presence of rifampin (growth inhibition area around a well)” value in the assay with E. coli IH3080 (rifampin 0 μg/ml) is 133 square millimeters; in the assay with E. coli IH3080 (rifampin 0.1 μg/ml) it was 177 square millimeters; in the assay with E. coli IH3080 (rifampin 1.0 μg/ml), 201 square millimeters; in the assay on A. baumannii ATCC 19606 (rifampin 0 μg/ml), 38 square millimeters; in the assay with A. baumannii ATCC 19606 (rifampin 0.1 μg/ml) it was 201 square millimeters; in the assay with A. baumannii ATCC 19606 (rifampin 0.3 μg/ml) it was 283 square millimeters. The “Antibacterial activity in the presence of rifampin (growth inhibition area around a well)” value was 0 square millimeters in assay [3] (rifampin 0 μg/ml), 20 square millimeters in assay [3] (rifampin 0.1 μg/ml) and 20 square millimeters in assay [3] (rifampin 0.3 μg/ml).
Take “OA-Thr-Dab-cy[Dab-Dab-DPhe-Leu-Abu-Dab-Thr-] [NAB 716]”: the “Antibacterial activity (growth inhibition area around a well)” value in assay [1] (4 μg per well) was determined as 0 square millimeters; in assay [1] (10 μg per well), 0 square millimeters; in assay [2] (4 μg per well) it was 0 square millimeters; in assay [2] (10 μg per well), 0 square millimeters; in the assay on E. coli IH3080 (K1:O18) (4 μg of compound per well), 13 square millimeters; in the assay on E. coli IH3080 (K1:O18) (10 μg of compound per well), 64 square millimeters. Also, the “Antibacterial activity in the presence of rifampin (growth inhibition area around a well)” value is reported as 13 square millimeters with E. coli IH3080 (rifampin 0 μg/ml); 133 square millimeters with E. coli IH3080 (rifampin 0.1 μg/ml); 165 square millimeters in the assay on E. coli IH3080 (rifampin 1.0 μg/ml); 0 square millimeters in the assay on A. baumannii ATCC 19606 (rifampin 0 μg/ml); 0 square millimeters with A. baumannii ATCC 19606 (rifampin 0.1 μg/ml); 64 square millimeters in the assay with A. baumannii ATCC 19606 (rifampin 0.3 μg/ml). Further, the “Antibacterial activity in the presence of rifampin (growth inhibition area around a well)” value in assay [3] (rifampin 0 μg/ml), in assay [3] (rifampin 0.1 μg/ml) and in assay [3] (rifampin 0.3 μg/ml) was 0 square millimeters each time.
For “OA-Thr-Dab-cy[Dab-Dab-DPhe-Leu-Dab-Abu-Thr-] [NAB 717]”, the “Antibacterial activity (growth inhibition area around a well)” value (in assay [1] (4 μg per well); in assay [1] (10 μg per well); in assay [2] (4 μg per well); in assay [2] (10 μg per well); in the assay on E. coli IH3080 (K1:O18) (4 μg of compound per well); in the assay with E. coli IH3080 (K1:O18) (10 μg of compound per well)) was 0 square millimeters in each case. For the same substance, the “Antibacterial activity in the presence of rifampin (growth inhibition area around a well)” value is 0 square millimeters with E. coli IH3080 (rifampin 0 μg/ml); 71 square millimeters in the assay with E. coli IH3080 (rifampin 0.1 μg/ml); 95 square millimeters with E. coli IH3080 (rifampin 1.0 μg/ml); 0 square millimeters with A. baumannii ATCC 19606 (rifampin 0 μg/ml); 0 square millimeters in the assay on A. baumannii ATCC 19606 (rifampin 0.1 μg/ml); 50 square millimeters with A. baumannii ATCC 19606 (rifampin 0.3 μg/ml). The “Antibacterial activity in the presence of rifampin (growth inhibition area around a well)” value in assay [3] (rifampin 0 μg/ml), in assay [3] (rifampin 0.1 μg/ml) and in assay [3] (rifampin 0.3 μg/ml) was 0 square millimeters throughout.
